From US4701458A (priority 1985, dated 1987)
Where “and” joins values, the source holds several entries; their conditions need not be identical. Equal entries are not always repeated. Entries after “also recorded” stand apart in the source; their conditions may differ. Where two headings read alike, the source gives them in different places.

Columns and labels:
ST = settings: cited from earlier work
[1] = tested on: basal intestinal fluid secretion; set-up: species or system suckling mice; settings: mouse, in vivo
guanylate cyclase [2] = target: guanylate cyclase (Rattus norvegicus, UniProt P23897); experiment: biochemical; set-up: species or system Sprague-Dawley rat; settings: for % Inhibition of ST-activated guanylate cyclase activity: ST-activated (6 units/ml); for % Inhibition of ST-activated guanylate cyclase activity / inhibition at 1000 µM: 1.0 mM; for inhibition at 10000 µM: 10 mM; for inhibition at 100 µM: 0.1 mM
[3] = tested on: Escherichia coli heat-stable enterotoxin (ST)-induced intestinal fluid secretion; type: in vivo, suckling mice
[4] = tested on: 8-bromo cyclic GMP-induced intestinal fluid secretion; set-up: species or system suckling mice; settings: mouse, in vivo
guanylate cyclase [5] = settings: cited from earlier work
[6] = read-out: % Inhibition of ST-activated guanylate cyclase activity, ST-activated (6 units/ml)
[7] = read-out: % Inhibition of basal guanylate cyclase activity, basal
[8] = read-out: inhibition of ST-activated guanylate cyclase activity, ST-activated (6 ST units/ml)
[9] = read-out: inhibition of basal guanylate cyclase activity, basal

Chain of guanylate cyclase (Rattus norvegicus, UniProt P23897) (P23897 23-1072): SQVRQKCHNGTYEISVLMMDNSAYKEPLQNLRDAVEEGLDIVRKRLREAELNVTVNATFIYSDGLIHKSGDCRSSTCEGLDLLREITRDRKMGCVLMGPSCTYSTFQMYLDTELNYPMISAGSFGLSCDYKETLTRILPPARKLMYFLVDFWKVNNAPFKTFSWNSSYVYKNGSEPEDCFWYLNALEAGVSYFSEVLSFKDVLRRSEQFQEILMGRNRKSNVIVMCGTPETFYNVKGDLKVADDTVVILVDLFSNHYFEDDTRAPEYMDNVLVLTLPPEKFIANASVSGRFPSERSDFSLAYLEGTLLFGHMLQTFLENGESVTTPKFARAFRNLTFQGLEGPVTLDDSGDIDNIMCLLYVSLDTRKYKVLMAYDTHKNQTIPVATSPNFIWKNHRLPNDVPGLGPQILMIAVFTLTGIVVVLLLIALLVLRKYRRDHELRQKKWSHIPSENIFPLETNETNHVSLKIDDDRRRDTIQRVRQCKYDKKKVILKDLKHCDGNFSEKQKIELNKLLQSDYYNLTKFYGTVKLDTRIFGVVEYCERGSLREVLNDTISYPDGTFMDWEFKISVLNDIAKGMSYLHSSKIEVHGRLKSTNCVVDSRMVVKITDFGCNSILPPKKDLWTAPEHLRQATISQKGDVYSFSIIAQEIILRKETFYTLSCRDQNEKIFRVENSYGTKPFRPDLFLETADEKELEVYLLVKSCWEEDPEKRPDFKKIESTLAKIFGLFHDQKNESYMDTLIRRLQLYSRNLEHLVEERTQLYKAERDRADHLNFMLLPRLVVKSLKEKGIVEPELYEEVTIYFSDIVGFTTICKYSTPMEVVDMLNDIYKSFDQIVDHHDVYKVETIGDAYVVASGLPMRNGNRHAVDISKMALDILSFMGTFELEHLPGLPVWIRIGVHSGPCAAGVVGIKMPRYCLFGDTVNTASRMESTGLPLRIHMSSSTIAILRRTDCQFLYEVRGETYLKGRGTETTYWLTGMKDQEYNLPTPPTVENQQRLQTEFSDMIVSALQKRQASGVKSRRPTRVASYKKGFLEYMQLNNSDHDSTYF

SMILES	effect on basal intestinal fluid level (in words) ([1]; sc)	% Inhibition of ST-activated guanylate cyclase activity (guanylate cyclase [2]) [%]	effect on basal guanylate cyclase activity (in words) (guanylate cyclase [2]; 1 mM)	inhibition at 1000 µM (guanylate cyclase [2]; [6]) [%]	inhibition at 1000 µM (guanylate cyclase [2]; [7]) [%]	intestinal fluid ratio (intestinal weight to remaining body weight), ST-induced ([3]; mouse, in vivo)	effect on ST-induced secretion (in words) ([3]; mouse, in vivo, sc)	intestinal fluid ratio (intestinal weight to remaining body weight), ST-induced ([3]; mouse, in vivo, sc)	Intestinal:Body Wt. Ratio, 8-bromo cyclic GMP-induced [4]	Intestinal:Body Wt. Ratio, 8-bromo cyclic GMP-induced ([4]; sc)	effect on 8-bromo cyclic GMP-induced intestinal secretion (in words) [4]	also measured
O[C@H](CS)[C@H](O)CS (racemic) [dithiothreitol]	–	–	–	–	–	–	–	–	–	–	–	effect on biological activity of ST (in words) (ST): loses biological activity promptly
CC(=O)N[C@@H](CS)C(=O)O [Acetylcysteine, acetylcysteine]	not affected	14	did not alter basal guanylate cyclase activity; also recorded: None of the other sulfhydryl compounds (1 mM) affected basal enzyme activity	11 to 21	0	0.0796±0.005 and 0.1061±0.005	no inhibition	0.0804±0.003	0.1028 ± 0.003	0.1024 ± 0.003	–	effect on basal fluid level (in words) ([1]; sc): not altered; % Inhibition of ST-activated guanylate cyclase activity (guanylate cyclase [2]; listed as acetylcysteine): 15%; effect on ST-induced responses (in words) ([3]; mouse, in vivo): No significant inhibition
NCCSSCCN [Cystamine, cystamine]	did not significantly alter basal intestinal fluid levels	–	–	73	45	–	reduce ST-induced intestinal secretion; also recorded: significantly reduce secretion; also recorded: significantly reduced ST-induced secretion	0.0935±0.003 and 0.1154± 0.006	0.1188 ± 0.003	0.1115 ± 0.003	no effect	inhibition at 10000 µM (guanylate cyclase [2]; [8]): 82%; inhibition at 10000 µM (guanylate cyclase [2]; [9]): 54%; inhibition at 100 µM (guanylate cyclase [2]; read-out: reduction in basal guanylate cyclase activity, basal): 13%; inhibition at 100 µM (guanylate cyclase [2]; read-out: reduction of ST-induced guanylate cyclase activity, ST-activated (6 ST units/ml)): 32%; effect on ST-induced secretion (in words) ([3]; mouse, in vivo): did not significantly affect ST-induced secretion; effect on guanylate cyclase (in words) (guanylate cyclase [5]): very marked effects on guanylate cyclase activity; also recorded: almost completely inactivate
N[C@@H](CCSC[C@H](N)C(=O)O)C(=O)O [Cystathionine, cystathionine]	–	–	–	–	–	–	–	–	0.1043 ± 0.002	0.1175 ± 0.004	no alteration	effect on basal responses (in words) [1]: no alteration; effect on basal secretion (in words) ([1]; sc): nor alter the basal secretory ratio; effect on ST-activated guanylate cyclase activity (in words) (guanylate cyclase [2]; ST-activated, concentration not given): no effect; effect on basal guanylate cyclase activity (in words) (guanylate cyclase [2]; concentration not given): no effect; effect on ST-induced fluid secretion (in words) ([3]; mouse, in vivo): no alteration; effect on ST-induced fluid secretion (in words) ([3]; mouse, in vivo, sc): did not inhibit ST-induced fluid secretion
NCCS [Cysteamine, cysteamine]	–	21	did not alter basal guanylate cyclase activity; also recorded: did not affect basal activity	11 to 21	0	0.0804±0.005	–	0.0765±0.003 and 0.0840 ± 0.005	0.1106 ± 0.010	0.1071 ± 0.005	–	effect on basal secretion (in words) [1]: did not alter basal secretion; effect on basal fluid level (in words) ([1]; sc): not affected; % Inhibition of ST-activated guanylate cyclase activity (guanylate cyclase [2]; listed as cysteamine): 21%; inhibition at 10000 µM (guanylate cyclase [2]; [8]): 63%; inhibition at 10000 µM (guanylate cyclase [2]; [9]): 15%; P of inhibition of ST-induced secretion (FIG. 2) ([3]; mouse, in vivo): < 0.001; effect on ST-induced fluid secretion (in words) ([3]; mouse, in vivo): most effective inhibitory agent; effect on ST-induced secretion (in words) ([3]; mouse, in vivo): significantly reduced; also recorded: reduced secretion; intestinal-fluid ratio ± SEM ([3]; mouse, in vivo): .125 ± 0.003; intestinal-fluid ratio ± SEM, experiment #1 ([3]; mouse, in vivo): .127 ± .007; intestinal-fluid ratio ± SEM, experiment #2 ([3]; mouse, in vivo): .119 ± .006; effect on ST-induced ratio (in words) ([3]; mouse, in vivo, sc): not significantly changed
N[C@H](CS)C(=O)O [D-cysteine]	No effect on basal fluid level	16	did not alter basal guanylate cyclase activity; also recorded: None of the other sulfhydryl compounds (1 mM) affected basal enzyme activity	11 to 21	0	0.0768±0.002 and 0.1121±0.005	–	–	0.1191 ± 0.006	0.1155 ± 0.005	–	effect on ST-induced fluid responses (in words) ([3]; mouse, in vivo, sc): neither D- or L-cysteine inhibited ST-induced fluid responses
N[C@H](CSSC[C@@H](N)C(=O)O)C(=O)O [D-cystine]	–	–	neither drug affected basal activity	33	0	0.1034±0.004 and 0.1197±0.004	neither compound reduced intestinal secretion	0.1092±0.011	0.1048 ± 0.004	0.1001 ± 0.005	Neither compound altered cyclic GMP-induced intestinal secretion	effect on basal secretion (in words) ([1]; sc): Neither agent given s.c. or i.g. significantly altered basal secretion; effect on ST-induced guanylate cyclase activity (in words) (guanylate cyclase [2]; ST-activated, 1 mM): significantly reduced; effect on basal guanylate cyclase activity (in words) (guanylate cyclase [2]; concentration not given): Neither compound inhibited basal guanylate cyclase activity; effect on ST-induced intestinal secretion (in words) ([3]; mouse, in vivo): significantly reduced
N[C@@H](CS)C(=O)O [L-cysteine]	No effect on basal fluid level	11	did not alter basal guanylate cyclase activity; also recorded: None of the other sulfhydryl compounds (1 mM) affected basal enzyme activity	11 to 21	0	0.0680±0.001 and 0.0877±0.006	–	–	0.1097 ± 0.004	0.1051 ± 0.006	–	effect on ST-induced fluid responses (in words) ([3]; mouse, in vivo, sc): neither D- or L-cysteine inhibited ST-induced fluid responses
N[C@@H](CSSC[C@H](N)C(=O)O)C(=O)O [L-cystine]	–	–	neither drug affected basal activity	39	0	0.0940±0.004 and 0.1288±0.003	neither compound reduced intestinal secretion	0.1115±0.006	0.1191 ± 0.004	0.1043 ± 0.004	Neither compound altered cyclic GMP-induced intestinal secretion	effect on basal secretion (in words) ([1]; sc): Neither agent given s.c. or i.g. significantly altered basal secretion; effect on ST-induced guanylate cyclase activity (in words) (guanylate cyclase [2]; ST-activated, 1 mM): significantly reduced; effect on basal guanylate cyclase activity (in words) (guanylate cyclase [2]; concentration not given): Neither compound inhibited basal guanylate cyclase activity; effect on ST-induced intestinal secretion (in words) ([3]; mouse, in vivo): significantly reduced
c1ccc2c(CC3=NCCN3)cccc2c1 [Naphazoline, naphazoline]	–	–	–	–	–	–	–	–	–	–	–	death of mice (N = 3): ALL DEAD; margin to lethal dose (in words) (mouse, in vivo): only one log less than a lethal dose; effect against ST (in words) ([3]; 10 mM): effective; intestinal-fluid ratio ± SEM, experiment #1 ([3]; mouse, in vivo): .150 ± .005; intestinal-fluid ratio ± SEM, experiment #2 ([3]; mouse, in vivo): .123 ± .005
NCCCNCCSP(=O)(O)O [S-2-(3-aminopropylamino) ethyl phosphorothioic acid]	–	–	–	–	–	–	–	–	–	–	–	Ratio ± SEM, ST-induced ([3]; mouse, in vivo): 0.1034 ± 0.008 and 0.0685 ± 0.003
N[C@@H](CS[35S]C[C@H](N)C(=O)O)C(=O)O [^35 S-cystine]	–	–	–	–	–	–	–	–	–	–	–	effect on guanylate cyclase (in words) (guanylate cyclase [5]): reversible loss of enzyme activity
COc1ccc2cc3[n+](cc2c1OC)CCc1cc2c(cc1-3)OCO2 [berberine]	–	–	–	–	–	–	–	–	–	–	–	intestinal-fluid ratio ± SEM ([3]; mouse, in vivo): .122 ± 0.003; intestinal-fluid ratio, pre-treatment ([3]; mouse, in vivo): .122 ± .004
